In patent publication US8513381B2, “Melanocortin analogs with antimicrobial activity” (Fondazione IRCCS Ca' Granda-Ospedale Maggiore Policlinico, priority 2009, dated 2013):
Converted amounts (≈) assume the structure as drawn. Read-outs that look alike come from different tables or passages of the source. Non-standard residues stand in square brackets, D forms with d. Residues, ends and D or L forms follow the SMILES beside them. d2Nal = N[C@H](Cc1ccc2ccccc2c1)C(=O)O; Cha = N[C@@H](CC1CCCCC1)C(=O)O; Aic = NC1(C(=O)O)Cc2ccccc2C1; Tle = CC(C)(C)[C@H](N)C(=O)O; Ac5c = NC1(C(=O)O)CCCC1; Ac4c = NC1(C(=O)O)CCC1; Aib = CC(C)(N)C(=O)O

How the values were obtained:
[1] = test system: C. albicans; format: cell-based, Candida albicans
Experimental: (§1) Two Candida albicans isolates were purchased from the ATCC (No. 24433 and 76615). The other yeast isolates were obtained from the collection of Fondazione Ospedale Maggiore Policlinico, Mangiagalli e Regina Elena, Milano. The collection included C. albicans (7 isolates), C. glabrata (3 isolates), and C. krusei (3 isolates). Antifungal susceptibility testing was performed using the broth microdilution method according to the NCCLS M27-A guidelines (National Committee for Clinical Laboratory Standards. 1997, Reference method for broth dilution antifungal susceptibility testing of yeasts and approved standard NCCLS document M27-A. National Committee for Clinical Laboratory Standards, Wayne, Pa.). The organisms were removed from frozen glycerol stock (10% sterile glycerol suspensions stored at −70° C.), subcultured onto Sabouraud's dextrose plates, and incubated at 35° C. After 48 h of incubation, the plates were inspected for purity. To prepare stationary growth phase yeast, a colony was taken from the agar plate and transferred into 5 mL Sabouraud-dextrose broth and incubated for 48 h at 35° C. Cells were centrifuged at 1,000×g for 10 min and the pellet was washed twice with distilled water. Cells were counted and suspended in RPMI 1640 medium buffered to pH 7.0 with 0.165 mol l^−1 morpholinepropanesulphonic acid (MOPS) buffer (Sigma) to obtain the two times test inoculum (1×10^3 to 5×10^3 CFU/mL). Each well of 96 U-shaped well-plates received 100 μl of each antifungal peptides in concentrations from 10^−4 to 7.8×10^−7 M and 100 μl of the two-times inoculum to a final yeast concentration of 0.5×10−[…] cells ml^−1
(§2) The MIC90, i.e. the minimum inhibitory concentrations endpoint determined as 90% reduction in turbidity measured using a spectrophotometer (Titertek multiscan at 690 nm wave length).

[2] = test system: C. krusei; format: cell-based, Candida krusei
Experimental: as §1, §2

[3] = test system: C. glabrata; format: cell-based, Candida glabrata
Experimental: as §1, §2

[4] = test system: Staphylococcus aureus ATCC 29213; format: cell-based
Experimental: (§3) The bacterial strains Pseudomonas aeruginosa ATCC 27853 and Staphylococcus aureus ATCC 29213 were grown in 2% Bacto Peptone water (Difco 1807-17-4) until growth was exponential. A standard microdilution technique with an inoculum of 2×10^6 CFU/mL was used. The minimal inhibitory concentration (MIC) of the peptides was determined in 1% Bacto Peptone water after incubation overnight at 37° C.

[5] = test system: Pseudomonas aeruginosa ATCC 27853; format: cell-based
Experimental: as §3

MIC 90 at 48 hours [1] [µg/mL] | MIC 90 at 48 hours ([1]; C. albicans 000954, 35° C.) | MIC 90 at 48 hours ([1]; C. albicans 983201-R1, 35° C.) | MIC 90 at 48 hours ([1]; C. albicans 991185, 35° C.) | MIC 90 at 48 hours ([1]; C. albicans 994199, 35° C.) | MIC 90 at 48 hours ([1]; C. albicans 995147, 35° C.) | MIC 90 at 48 hours ([1]; C. albicans 995439, 35° C.) | MIC 90 at 48 hours ([1]; C. albicans ATCC 24433, 35° C.) | MIC 90 at 48 hours ([1]; C. albicans ATCC 76615, 35° C.) | MIC 90 at 48 hours [2] [µg/mL] | MIC 90 at 48 hours ([3]; C. glabrata 18012, 35° C.) | MIC 90 at 48 hours ([3]; C. glabrata 995651, 35° C.) | MIC 90 at 48 hours ([3]; C. glabrata 995667, 35° C.) | MIC (minimal inhibitory concentration) [4] [µg/mL] | MIC (minimal inhibitory concentration) [5] [µg/mL] | MIC 90 at 48 hours [3] [µg/mL] | MIC 90 at 48 hours ([1]; C. albicans 011587, 35° C.) | MIC 90 at 48 hours ([2]; C. krusei 995668, 35° C.) | Compound
118 (≈ 99.9 µM) | no | no | no | no | no |  | no | no | 118 (≈ 99.9 µM) | no | no | no |  |  |  | no | no | CC(C)[C@H](NC(=O)[C@H](Cc1ccccc1)NC(=O)[C@H](CCCCN)NC(=O)[C@@H](NC(=O)[C@H](Cc1c[nH]c2ccccc12)NC(=O)[C@H](CCCNC(=N)N)NC(=O)[C@@H](Cc1ccc2ccccc2c1)NC(=O)[C@@H](N)Cc1c[nH]cn1)C(C)(C)C)C(N)=O [MSH0707, H-His-D(2)-Nal-Arg-Trp-tBuGly-Lys-Phe-Val-NH2] (H-H[d2Nal]RW[Tle]KFV-NH2)
 |  |  |  |  |  |  |  |  |  |  |  |  | 31 (≈ 25.3 µM) | 61 (≈ 49.7 µM) | 123 (≈ 100 µM) |  |  | CC(C)[C@H](NC(=O)[C@H](Cc1ccccc1)NC(=O)[C@H](CCCCN)NC(=O)C1(NC(=O)[C@H](Cc2c[nH]c3ccccc23)NC(=O)[C@H](CCCNC(=N)N)NC(=O)[C@@H](Cc2ccc3ccccc3c2)NC(=O)[C@@H](N)Cc2c[nH]cn2)Cc2ccccc2C1)C(N)=O [MSH0708, H-His-D(2)-Nal-Arg-Trp-Aic-Lys-Phe-Val-NH2] (H-H[d2Nal]RW[Aic]KFV-NH2)
117 (≈ 100 µM) | no | no |  |  | no |  | no | no | 117 (≈ 100 µM) | no | no | no |  |  |  |  |  | CC(C)[C@H](NC(=O)[C@H](Cc1ccccc1)NC(=O)[C@H](CCCCN)NC(=O)C1(NC(=O)[C@H](Cc2c[nH]c3ccccc23)NC(=O)[C@H](CCCNC(=N)N)NC(=O)[C@@H](Cc2ccc3ccccc3c2)NC(=O)[C@@H](N)Cc2c[nH]cn2)CCC1)C(N)=O [MSH0709, H-His-D(2)-Nal-Arg-Trp-Cybu-Lys-Phe-Val-NH2] (H-H[d2Nal]RW[Ac4c]KFV-NH2)

Continued, compound first:

Compound | MIC 90 at 48 hours [1] [µg/mL] | MIC 90 at 48 hours ([1]; C. albicans 000954, 35° C.) | MIC 90 at 48 hours ([1]; C. albicans 983201-R1, 35° C.) | MIC 90 at 48 hours ([1]; C. albicans 991185, 35° C.) | MIC 90 at 48 hours ([1]; C. albicans 994199, 35° C.) | MIC 90 at 48 hours ([1]; C. albicans 995147, 35° C.) | MIC 90 at 48 hours ([1]; C. albicans 995439, 35° C.) | MIC 90 at 48 hours ([1]; C. albicans ATCC 24433, 35° C.) | MIC 90 at 48 hours ([1]; C. albicans ATCC 76615, 35° C.) | MIC 90 at 48 hours [2] [µg/mL] | MIC 90 at 48 hours ([3]; C. glabrata 18012, 35° C.) | MIC 90 at 48 hours ([3]; C. glabrata 995651, 35° C.) | MIC 90 at 48 hours ([3]; C. glabrata 995667, 35° C.) | MIC (minimal inhibitory concentration) [4] [µg/mL] | MIC (minimal inhibitory concentration) [5] [µg/mL] | MIC 90 at 48 hours [3] [µg/mL] | MIC 90 at 48 hours ([1]; C. albicans 011587, 35° C.) | MIC 90 at 48 hours ([2]; C. krusei 995668, 35° C.)
CC(C)[C@H](NC(=O)[C@H](Cc1ccccc1)NC(=O)[C@H](CCCCN)NC(=O)C(C)(C)NC(=O)[C@H](Cc1c[nH]c2ccccc12)NC(=O)[C@H](CCCNC(=N)N)NC(=O)[C@@H](Cc1ccc2ccccc2c1)NC(=O)[C@@H](N)Cc1c[nH]cn1)C(N)=O [MSH0702, H-His-D(2)-Nal-Arg-Trp-Aib-Lys-Phe-Val-NH2] (H-H[d2Nal]RW[Aib]KFV-NH2) | 115 (≈ 99.7 µM) | no | no | no | no | no | no | no | no | 115 (≈ 99.7 µM) | no | no | no |  |  |  |  | 
CC(C)[C@H](NC(=O)[C@H](Cc1ccccc1)NC(=O)[C@H](CCCCN)NC(=O)[C@H](CC1CCCCC1)NC(=O)[C@H](Cc1c[nH]c2ccccc12)NC(=O)[C@H](CCCNC(=N)N)NC(=O)[C@@H](Cc1ccc2ccccc2c1)NC(=O)[C@@H](N)Cc1c[nH]cn1)C(N)=O [MSH0704, H-His-D(2)-Nal-Arg-Trp-Cha-Lys-Phe-Val-NH2] (H-H[d2Nal]RW[Cha]KFV-NH2) |  |  |  |  |  |  |  |  |  |  |  |  |  | 31 (≈ 25.4 µM) | 61 (≈ 49.9 µM) | 122 (≈ 99.9 µM) |  | 
CC(C)[C@H](NC(=O)[C@H](Cc1ccccc1)NC(=O)[C@H](CCCCN)NC(=O)C1(NC(=O)[C@H](Cc2c[nH]c3ccccc23)NC(=O)[C@H](CCCNC(=N)N)NC(=O)[C@@H](Cc2ccc3ccccc3c2)NC(=O)[C@@H](N)Cc2c[nH]cn2)CCCC1)C(N)=O [MSH0705, H-His-D(2)-Nal-Arg-Trp-Cpa-Lys-Phe-Val-NH2] (H-H[d2Nal]RW[Ac5c]KFV-NH2) |  |  |  |  |  |  |  |  |  | 117 (≈ 99.2 µM) | no | no | no |  |  |  |  | 
